Test results: PubChem BioAssay (NCI)
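Cells were grown in 96-well plates and exposed to each compound for 48 hours at five concentrations; endpoints were interpolated linearly between bracketing concentrations, or set to the highest concentration if not reached. Abbreviation: GI50, concentration required for 50% inhibition of growth. TGI is the concentration that stops growth completely.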

Experiments:
Assay in all cases: growth of human tumour cells (NCI), 48 h
786-0 renal = test system: 786-0 renal
A498 renal = test system: A498 renal
A549 NSCLC = test system: A549 NSCLC
ACHN renal = test system: ACHN renal
BT-549 breast = test system: BT-549 breast
CAKI-1 renal = test system: CAKI-1 renal
CCRF-CEM leukemia = test system: CCRF-CEM leukemia
COLO 205 colon = test system: COLO 205 colon
DU-145 prostate = test system: DU-145 prostate
EKVX NSCLC = test system: EKVX NSCLC
HCC-2998 colon = test system: HCC-2998 colon
HCT-116 colon = test system: HCT-116 colon
HCT-15 colon = test system: HCT-15 colon
HL-60(TB) leukemia = test system: HL-60(TB) leukemia
HOP-62 NSCLC = test system: HOP-62 NSCLC
HOP-92 NSCLC = test system: HOP-92 NSCLC
HS 578T breast = test system: HS 578T breast
HT29 colon = test system: HT29 colon
IGROV1 ovarian = test system: IGROV1 ovarian
K-562 leukemia = test system: K-562 leukemia
KM12 colon = test system: KM12 colon
LOX IMVI melanoma = test system: LOX IMVI melanoma
M14 melanoma = test system: M14 melanoma
MALME-3M melanoma = test system: MALME-3M melanoma
MCF7 breast = test system: MCF7 breast
MDA-MB-231 breast = test system: MDA-MB-231 breast
MDA-MB-435 = test system: MDA-MB-435
MDA-MB-468 breast = test system: MDA-MB-468 breast
MOLT-4 leukemia = test system: MOLT-4 leukemia
NCI-H226 lung = test system: NCI-H226 lung
NCI-H23 lung = test system: NCI-H23 lung
NCI-H460 lung = test system: NCI-H460 lung
NCI-H522 lung = test system: NCI-H522 lung
NCI/ADR-RES ovarian = test system: NCI/ADR-RES ovarian
OVCAR-3 ovarian = test system: OVCAR-3 ovarian
OVCAR-4 ovarian = test system: OVCAR-4 ovarian
OVCAR-5 ovarian = test system: OVCAR-5 ovarian
OVCAR-8 ovarian = test system: OVCAR-8 ovarian
PC-3 prostate = test system: PC-3 prostate
RPMI-8226 leukemia = test system: RPMI-8226 leukemia
SF-268 CNS = test system: SF-268 CNS
SF-295 CNS = test system: SF-295 CNS
SF-539 CNS = test system: SF-539 CNS
SK-MEL-2 melanoma = test system: SK-MEL-2 melanoma
SK-MEL-28 melanoma = test system: SK-MEL-28 melanoma
SK-MEL-5 melanoma = test system: SK-MEL-5 melanoma
SK-OV-3 ovarian = test system: SK-OV-3 ovarian
SN12C renal = test system: SN12C renal
SNB-19 CNS = test system: SNB-19 CNS
SNB-75 CNS = test system: SNB-75 CNS
SR leukemia = test system: SR leukemia
SW-620 colon = test system: SW-620 colon
T-47D breast = test system: T-47D breast
TK-10 renal = test system: TK-10 renal
U251 CNS = test system: U251 CNS
UACC-257 melanoma = test system: UACC-257 melanoma
UACC-62 melanoma = test system: UACC-62 melanoma
UO-31 renal = test system: UO-31 renal

COCCOCCOCCOc1ccc(-n2cc(CCCN(CCNc3ccnc4cc(Cl)ccc34)C(=O)CCC(=O)O[C@@H]3O[C@@H]4OC5(C)CC[C@H]6[C@H](C)CC[C@@H]([C@H]3C)[C@@]46OO5)nn2)cc1
GI50 (786-0 renal): 5.54 µM
TGI (786-0 renal): > 10.3 µM
GI50 (A498 renal): > 10.3 µM
TGI (A498 renal): > 10.3 µM
GI50 (A549 NSCLC): 6.09 µM
TGI (A549 NSCLC): > 10.3 µM
GI50 (ACHN renal): 3.97 µM
TGI (ACHN renal): > 10.3 µM
GI50 (BT-549 breast): 0.771 µM
TGI (BT-549 breast): 6.85 µM
GI50 (CAKI-1 renal): > 10.3 µM
TGI (CAKI-1 renal): > 10.3 µM
GI50 (CCRF-CEM leukemia): 1.07 µM
TGI (CCRF-CEM leukemia): > 10.3 µM
GI50 (COLO 205 colon): 1.12 µM
TGI (COLO 205 colon): > 10.3 µM
GI50 (DU-145 prostate): > 10.3 µM
TGI (DU-145 prostate): > 10.3 µM
GI50 (EKVX NSCLC): 1.67 µM
TGI (EKVX NSCLC): > 10.3 µM
GI50 (HCC-2998 colon): 7.16 µM
TGI (HCC-2998 colon): > 10.3 µM
GI50 (HCT-116 colon): 0.434 µM
TGI (HCT-116 colon): > 10.3 µM
GI50 (HCT-15 colon): 0.388 µM
TGI (HCT-15 colon): > 10.3 µM
GI50 (HL-60(TB) leukemia): 0.353 µM
TGI (HL-60(TB) leukemia): 2.37 µM
GI50 (HOP-62 NSCLC): > 10.3 µM
TGI (HOP-62 NSCLC): > 10.3 µM
GI50 (HOP-92 NSCLC): 1.09 µM
TGI (HOP-92 NSCLC): 8.11 µM
GI50 (HS 578T breast): 2.54 µM
TGI (HS 578T breast): > 10.3 µM
GI50 (HT29 colon): 1.23 µM
TGI (HT29 colon): > 10.3 µM
GI50 (IGROV1 ovarian): 4.54 µM
TGI (IGROV1 ovarian): > 10.3 µM
GI50 (K-562 leukemia): 0.434 µM
TGI (K-562 leukemia): > 10.3 µM
GI50 (KM12 colon): 0.792 µM
TGI (KM12 colon): > 10.3 µM
GI50 (LOX IMVI melanoma): 0.731 µM
TGI (LOX IMVI melanoma): > 10.3 µM
GI50 (M14 melanoma): 3.19 µM
TGI (M14 melanoma): > 10.3 µM
GI50 (MALME-3M melanoma): 1.73 µM
TGI (MALME-3M melanoma): 4.2 µM
GI50 (MCF7 breast): 1.04 µM
TGI (MCF7 breast): > 10.3 µM
GI50 (MDA-MB-231 breast): > 10.3 µM
TGI (MDA-MB-231 breast): > 10.3 µM
GI50 (MDA-MB-435): 1.25 µM
TGI (MDA-MB-435): > 10.3 µM
GI50 (MDA-MB-468 breast): 1.01 µM
TGI (MDA-MB-468 breast): > 10.3 µM
GI50 (MOLT-4 leukemia): 0.408 µM
TGI (MOLT-4 leukemia): > 10.3 µM
GI50 (NCI-H226 lung): 3.18 µM
TGI (NCI-H226 lung): > 10.3 µM
GI50 (NCI-H23 lung): 1.77 µM
TGI (NCI-H23 lung): > 10.3 µM
GI50 (NCI-H460 lung): 10.1 µM
TGI (NCI-H460 lung): > 10.3 µM
GI50 (NCI-H522 lung): 0.754 µM
TGI (NCI-H522 lung): > 10.3 µM
GI50 (NCI/ADR-RES ovarian): 2.45 µM
TGI (NCI/ADR-RES ovarian): > 10.3 µM
GI50 (OVCAR-3 ovarian): 0.883 µM
TGI (OVCAR-3 ovarian): > 10.3 µM
GI50 (OVCAR-4 ovarian): 2 µM
TGI (OVCAR-4 ovarian): > 10.3 µM
GI50 (OVCAR-5 ovarian): 1.7 µM
TGI (OVCAR-5 ovarian): > 10.3 µM
GI50 (OVCAR-8 ovarian): 1.83 µM
TGI (OVCAR-8 ovarian): > 10.3 µM
GI50 (PC-3 prostate): 0.301 µM
TGI (PC-3 prostate): > 10.3 µM
GI50 (RPMI-8226 leukemia): 0.386 µM
TGI (RPMI-8226 leukemia): > 10.3 µM
GI50 (SF-268 CNS): 7.69 µM
TGI (SF-268 CNS): > 10.3 µM
GI50 (SF-295 CNS): 3.63 µM
TGI (SF-295 CNS): > 10.3 µM
GI50 (SF-539 CNS): 4.97 µM
TGI (SF-539 CNS): > 10.3 µM
GI50 (SK-MEL-2 melanoma): 5.76 µM
TGI (SK-MEL-2 melanoma): > 10.3 µM
GI50 (SK-MEL-28 melanoma): 4.01 µM
TGI (SK-MEL-28 melanoma): > 10.3 µM
GI50 (SK-MEL-5 melanoma): 1.18 µM
TGI (SK-MEL-5 melanoma): 8.81 µM
GI50 (SK-OV-3 ovarian): > 10.3 µM
TGI (SK-OV-3 ovarian): > 10.3 µM
GI50 (SN12C renal): 4.77 µM
TGI (SN12C renal): > 10.3 µM
GI50 (SNB-19 CNS): > 10.3 µM
TGI (SNB-19 CNS): > 10.3 µM
GI50 (SNB-75 CNS): > 10.3 µM
TGI (SNB-75 CNS): > 10.3 µM
GI50 (SR leukemia): 0.375 µM
TGI (SR leukemia): 3.34 µM
GI50 (SW-620 colon): 0.654 µM
TGI (SW-620 colon): > 10.3 µM
GI50 (T-47D breast): 0.42 µM
TGI (T-47D breast): > 10.3 µM
GI50 (TK-10 renal): > 10.3 µM
TGI (TK-10 renal): > 10.3 µM
GI50 (U251 CNS): 4.31 µM
TGI (U251 CNS): > 10.3 µM
GI50 (UACC-257 melanoma): 1.86 µM
TGI (UACC-257 melanoma): > 10.3 µM
GI50 (UACC-62 melanoma): 1.18 µM
TGI (UACC-62 melanoma): > 10.3 µM
GI50 (UO-31 renal): 1.37 µM
TGI (UO-31 renal): > 10.3 µM
